Test results published in the supplement of paper PMC10307832.

How the values were obtained:
Experiment in all cases: relative viability (nuclei count vs DMSO), 5 days (fraction); higher = more cells survive
201T = test system: 201T
How it was run: (§1)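 Lung cancer cell lines were pin-tool dosed in 1536-well plates on the day after seeding, with either a lone drug or a fixed anchor-drug dose plus five library-drug doses (not always all listed) in √10 steps. Nuclei were counted on 4× images after 5 days. Relative viability is the ratio of treated-well to vehicle-well nuclei counts, with each value a median of duplicate plates.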

ABC-1 = test system: ABC-1
How it was run: as §1

BEN = test system: BEN
How it was run: as §1

HCC-366 = test system: HCC-366
How it was run: as §1

HCC-44 = test system: HCC-44
How it was run: as §1

HCC-78 = test system: HCC-78
How it was run: as §1

LK-2 = test system: LK-2
How it was run: as §1

LOU-NH91 = test system: LOU-NH91
How it was run: as §1

NCI-H1355 = test system: NCI-H1355
How it was run: as §1

NCI-H1666 = test system: NCI-H1666
How it was run: as §1

NCI-H1734 = test system: NCI-H1734
How it was run: as §1

NCI-H1755 = test system: NCI-H1755
How it was run: as §1

NCI-H2009 = test system: NCI-H2009
How it was run: as §1

NCI-H2228 = test system: NCI-H2228
How it was run: as §1

NCI-H2347 = test system: NCI-H2347
How it was run: as §1

NCI-H2405 = test system: NCI-H2405
How it was run: as §1

NCI-H358 = test system: NCI-H358
How it was run: as §1

NCI-H520 = test system: NCI-H520
How it was run: as §1

NCI-H727 = test system: NCI-H727
How it was run: as §1

NCI-H838 = test system: NCI-H838
How it was run: as §1

SW 1573 = test system: SW 1573
How it was run: as §1

UMC-11 = test system: UMC-11
How it was run: as §1

Question: What does the source list for `Cc1cnc(-c2cnc(NCCNc3ccc(C#N)cn3)nc2-c2ccc(Cl)cc2Cl)[nH]1` + Cc1nc(NC(=O)N2CCC[C@H]2C(N)=O)sc1-c1ccnc(C(C)(C)C(F)(F)F)c1 [Alpelisib] (partner 2 µM)?
Answer: relative viability (201T; first compound 0.08 µM): 1.07; relative viability (201T; first compound 0.253 µM): 0.959; relative viability (201T; first compound 0.8 µM): 1.01; relative viability (201T; first compound 2.53 µM): 1.02; relative viability (ABC-1; first compound 0.08 µM): 0.961; relative viability (ABC-1; first compound 0.253 µM): 0.867; relative viability (ABC-1; first compound 0.8 µM): 1.02; relative viability (ABC-1; first compound 2.53 µM): 0.814; relative viability (BEN; first compound 0.08 µM): 1.22; relative viability (BEN; first compound 0.253 µM): 0.973; relative viability (BEN; first compound 0.8 µM): 0.964; relative viability (BEN; first compound 2.53 µM): 1.04; relative viability (HCC-366; first compound 0.08 µM): 0.369; relative viability (HCC-366; first compound 0.253 µM): 0.364; relative viability (HCC-366; first compound 0.8 µM): 0.33; relative viability (HCC-366; first compound 2.53 µM): 0.32; relative viability (HCC-44; first compound 0.08 µM): 0.853; relative viability (HCC-44; first compound 0.253 µM): 0.768; relative viability (HCC-44; first compound 0.8 µM): 0.823; relative viability (HCC-44; first compound 2.53 µM): 0.926; relative viability (HCC-78; first compound 0.08 µM): 0.401; relative viability (HCC-78; first compound 0.253 µM): 0.285; relative viability (HCC-78; first compound 0.8 µM): 0.308; relative viability (HCC-78; first compound 2.53 µM): 0.333; relative viability (LK-2; first compound 0.08 µM): 1.21; relative viability (LK-2; first compound 0.253 µM): 1.05; relative viability (LK-2; first compound 0.8 µM): 1.13; relative viability (LK-2; first compound 2.53 µM): 1.3; relative viability (LOU-NH91; first compound 0.08 µM): 0.852; relative viability (LOU-NH91; first compound 0.253 µM): 0.729; relative viability (LOU-NH91; first compound 0.8 µM): 0.675; relative viability (LOU-NH91; first compound 2.53 µM): 0.715; relative viability (NCI-H1355; first compound 0.08 µM): 0.801; relative viability (NCI-H1355; first compound 0.253 µM): 0.752; relative viability (NCI-H1355; first compound 0.8 µM): 0.786; relative viability (NCI-H1355; first compound 2.53 µM): 0.783; relative viability (NCI-H1666; first compound 0.08 µM): 1; relative viability (NCI-H1666; first compound 0.253 µM): 0.919; relative viability (NCI-H1666; first compound 0.8 µM): 0.831; relative viability (NCI-H1666; first compound 2.53 µM): 1.07; relative viability (NCI-H1734; first compound 0.08 µM): 0.766; relative viability (NCI-H1734; first compound 0.253 µM): 0.673; relative viability (NCI-H1734; first compound 0.8 µM): 0.656; relative viability (NCI-H1734; first compound 2.53 µM): 0.633; relative viability (NCI-H1755; first compound 0.08 µM): 0.998; relative viability (NCI-H1755; first compound 0.253 µM): 0.851; relative viability (NCI-H1755; first compound 0.8 µM): 0.901; relative viability (NCI-H1755; first compound 2.53 µM): 0.896; relative viability (NCI-H2009; first compound 0.08 µM): 1.13; relative viability (NCI-H2009; first compound 0.253 µM): 1.14; relative viability (NCI-H2009; first compound 0.8 µM): 1.26; relative viability (NCI-H2009; first compound 2.53 µM): 1.05; relative viability (NCI-H2228; first compound 0.08 µM): 0.931; relative viability (NCI-H2228; first compound 0.253 µM): 0.7; relative viability (NCI-H2228; first compound 0.8 µM): 0.987; relative viability (NCI-H2228; first compound 2.53 µM): 0.717; relative viability (NCI-H2347; first compound 0.08 µM): 1.08; relative viability (NCI-H2347; first compound 0.253 µM): 0.812; relative viability (NCI-H2347; first compound 0.8 µM): 1.15; relative viability (NCI-H2347; first compound 2.53 µM): 1.01; relative viability (NCI-H2405; first compound 0.08 µM): 1.09; relative viability (NCI-H2405; first compound 0.253 µM): 0.793; relative viability (NCI-H2405; first compound 0.8 µM): 0.811; relative viability (NCI-H2405; first compound 2.53 µM): 0.592; relative viability (NCI-H358; first compound 0.08 µM): 0.955; relative viability (NCI-H358; first compound 0.253 µM): 0.714; relative viability (NCI-H358; first compound 0.8 µM): 0.843; relative viability (NCI-H358; first compound 2.53 µM): 0.729; relative viability (NCI-H520; first compound 0.08 µM): 0.926; relative viability (NCI-H520; first compound 0.253 µM): 0.791; relative viability (NCI-H520; first compound 0.8 µM): 1.11; relative viability (NCI-H520; first compound 2.53 µM): 1.04; relative viability (NCI-H727; first compound 0.08 µM): 0.505; relative viability (NCI-H727; first compound 0.253 µM): 0.593; relative viability (NCI-H727; first compound 0.8 µM): 0.566; relative viability (NCI-H727; first compound 2.53 µM): 0.482; relative viability (NCI-H838; first compound 0.08 µM): 1.06; relative viability (NCI-H838; first compound 0.253 µM): 0.951; relative viability (NCI-H838; first compound 0.8 µM): 1.18; relative viability (NCI-H838; first compound 2.53 µM): 1.41; relative viability (SW 1573; first compound 0.08 µM): 0.822; relative viability (SW 1573; first compound 0.253 µM): 0.765; relative viability (SW 1573; first compound 0.8 µM): 0.748; relative viability (SW 1573; first compound 2.53 µM): 0.515; relative viability (UMC-11; first compound 0.08 µM): 0.844; relative viability (UMC-11; first compound 0.253 µM): 0.903; relative viability (UMC-11; first compound 0.8 µM): 1.02; relative viability (UMC-11; first compound 2.53 µM): 0.908
